Consider three compounds from publication PMC4501412 (Memórias do Instituto Oswaldo Cruz, 2015).

The subject of series [1] is DNA damage in human whole blood cells. Nature of the series: In vitro alkaline single cell gel electrophoresis. It counts as cell-based. To be noted: positive control, 160 µM.
The conditions of series [2]: ref Ferreiro et al. 2002; cited from earlier work.
The test system of series [3] is Bloodstream trypomastigotes of T. cruzi (Y strain). The series is described as follows: In vitro trypanocidal assay. Type of series: cell-based. To be noted: Trypanosoma cruzi, 24 h, read-out: IC50/24 h.
Series [4] has as its system Salmonella typhimurium. To be noted: ref Rosenkranz Jr et al. 1976; cited from earlier work.

Consider `COS(C)(=O)=O` [MMS, Methyl methane-sulfonate], for which the “TAU value (total DNA damage score)” value is recorded as 454.3 ± 9.2 TAU in series [1] and “MI: mutagenicity inde; NA: not applicable; TAU: total arbitrary units for the positive control, methyl methane-sulfonate value was 454.3 ± 9.2” in series [1] (listed as methyl methane-sulfonate).

With `Cc1ncc([N+](=O)[O-])n1CC(O)CCl` (centres unmarked) [Compound 4, ornidazole], in series [2], the “Mutagenicity (in words)” value is “known to be a mutagenic agent”.

`O=C(Cn1ccnc1[N+](=O)[O-])NCc1ccccc1` [Compound 8, benznidazole]: in series [3], the IC50 amounted to 9.7 ± 2.4 µM. Further, in series [4], the Ames test result is “positive”.
